Earlier results as cited in patent US10507179B2, “Formulations of levosimendan for intravenous administration as infusion or injection and of infusion concentrate” (CARINOPHARM GmbH, priority 2015, dated 2019).
≈ marks a conversion by molar mass, not a printed value. Where “and” joins values, the source holds several entries; their conditions need not be identical. Identical values can stand only once.

Tests used:
[1] = not given; remark: listed apart in the source

Compound: C[C@@H]1CC(=O)NN=C1c1ccc(NN=C(C#N)C#N)cc1 [Levosimendan, (−)-[[4-(1,4,5,6-tetrahydro-4-methyl-6-oxo-3-pyridazi-nyl)phenyl]hydrazono]propane dinitrile]
- pKa: 6.3 and 6.26
- solubility ([1]; pH value of 2): 20 µg/mL (≈ 71.4 µM)
- stability in aqueous solutions ([1]; physiological pH): not stable
- solubility in phosphate buffer ([1]; room temperature, physiological pH of 7.4): 400 µg/mL (≈ 1430 µM)
